ChEMBL document CHEMBL1275492, “In vitro activity of ceftobiprole against pathogens from two phase 3 clinical trials of complicated skin and skin structure infections” (2008)
Converted amounts (≈) assume the structure as drawn.

Legend:
Type in all cases: functional
[1] = system: Staphylococcus intermedius; test: Antibacterial activity against Staphylococcus intermedius obtained from complicated skin and skin structure infections by agar dilution method
[2] = system: Lactococcus lactis; test: Antibacterial activity against Lactococcus lactis obtained from complicated skin and skin structure infections by agar dilution method
[3] = system: Enterococcus faecium; test: Antibacterial activity against Enterococcus faecium obtained from complicated skin and skin structure infections by agar dilution method
[4] = system: Enterococcus faecalis; test: Antibacterial activity against Enterococcus faecalis obtained from complicated skin and skin structure infections by agar dilution method
[5] = Antibacterial activity against Streptococcus sp. 'group G' obtained from complicated skin and skin structure infections by agar dilution method
[6] = system: Micrococcus; test: Antibacterial activity against Micrococcus spp. obtained from complicated skin and skin structure infections by agar dilution method
[7] = system: Gemella; test: Antibacterial activity against Gemella spp. obtained from complicated skin and skin structure infections by agar dilution method
[8] = Antibacterial activity against Streptococcus sp. 'group C' obtained from complicated skin and skin structure infections by agar dilution method
[9] = system: Streptococcus constellatus; test: Antibacterial activity against Streptococcus constellatus obtained from complicated skin and skin structure infections by agar dilution method
[10] = system: Aerococcus viridans; test: Antibacterial activity against Aerococcus viridans obtained from complicated skin and skin structure infections by agar dilution method
[11] = system: Gemella morbillorum; test: Antibacterial activity against Gemella morbillorum obtained from complicated skin and skin structure infections […]
[12] = system: Streptococcus mitis; test: Antibacterial activity against Streptococcus mitis obtained from complicated skin and skin structure infections by agar dilution method
[13] = system: Streptococcus agalactiae; test: Antibacterial activity against Streptococcus agalactiae obtained from complicated skin and skin structure infections by agar dilution method
[14] = system: Streptococcus pyogenes; test: Antibacterial activity against Streptococcus pyogenes obtained from complicated skin and skin structure infections by agar dilution method
[15] = system: Bacillus; test: Antibacterial activity against Bacillus spp. obtained from complicated skin and skin structure infections by agar dilution method
[16] = system: Serratia marcescens; test: Antibacterial activity against Serratia marcescens obtained from complicated skin and skin structure infections by agar dilution method
[17] = system: Pseudomonas aeruginosa; test: Antibacterial activity against Pseudomonas aeruginosa obtained from complicated skin and skin structure infections by agar dilution method
[18] = system: Proteus penneri; test: Antibacterial activity against Proteus penneri obtained from complicated skin and skin structure infections by agar dilution method
[19] = system: Salmonella; test: Antibacterial activity against Salmonella spp. obtained from complicated skin and skin structure infections by agar dilution method
[20] = system: Stenotrophomonas maltophilia; test: Antibacterial activity against Stenotrophomonas maltophilia obtained from complicated skin and skin structure infections by agar dilution method
[21] = system: Proteus mirabilis; test: Antibacterial activity against Proteus mirabilis obtained from complicated skin and skin structure infections by agar dilution method
[22] = system: Acinetobacter baumannii; test: Antibacterial activity against Acinetobacter baumannii obtained from complicated skin and skin structure infections by agar dilution method
[23] = system: Pseudomonas fluorescens; test: Antibacterial activity against Pseudomonas fluorescens obtained from complicated skin and skin structure infections by agar dilution method
[24] = system: Klebsiella pneumoniae; test: Antibacterial activity against Klebsiella pneumoniae obtained from complicated skin and skin structure infections by agar dilution method
[25] = system: Klebsiella oxytoca; test: Antibacterial activity against Klebsiella oxytoca obtained from complicated skin and skin structure infections by agar dilution method
[26] = system: Escherichia coli; test: Antibacterial activity against Escherichia coli obtained from complicated skin and skin structure infections by agar dilution method
[27] = system: Enterobacter cloacae; test: Antibacterial activity against Enterobacter cloacae obtained from complicated skin and skin structure infections by agar dilution method
[28] = system: Providencia stuartii; test: Antibacterial activity against Providencia stuartii obtained from complicated skin and skin structure infections by agar dilution method
[29] = system: Enterobacter amnigenus; test: Antibacterial activity against Enterobacter amnigenus obtained from complicated skin and skin structure infections by agar dilution method; settings: Lelliottia amnigena
[30] = system: Morganella morganii; test: Antibacterial activity against Morganella morganii obtained from complicated skin and skin structure infections by agar dilution method
[31] = system: Citrobacter freundii; test: Antibacterial activity against Citrobacter freundii obtained from complicated skin and skin structure infections by agar dilution method
[32] = system: Proteus vulgaris; test: Antibacterial activity against Proteus vulgaris obtained from complicated skin and skin structure infections by agar dilution method
[33] = system: Citrobacter braakii; test: Antibacterial activity against Citrobacter braakii obtained from complicated skin and skin structure infections by agar dilution method
[34] = system: Klebsiella aerogenes; test: Antibacterial activity against Enterobacter aerogenes obtained from complicated skin and skin structure infections by agar dilution method

## CC1(C)S[C@@H]2[C@H](NC(=O)Cc3ccccc3)C(=O)N2[C@H]1C(=O)O [PENICILLIN G]
[1]
  MIC50: 0.5 µg/mL (≈ 1.5 µM)
  MIC90: 0.5 µg/mL (≈ 1.5 µM)
[2]
  MIC50: ≤ 0.03 µg/mL
  MIC90: 1 µg/mL (≈ 2.99 µM)
[3]
  MIC: > 4 µg/mL
  MIC50: > 4 µg/mL
[4]
  MIC: 2 µg/mL (≈ 5.98 µM)
  MIC50: 2 µg/mL (≈ 5.98 µM)
  MIC90: 4 µg/mL (≈ 12 µM)
[5]
  MIC: ≤ 0.03 µg/mL
  MIC50: ≤ 0.03 µg/mL
  MIC90: ≤ 0.03 µg/mL
[6]
  MIC50: ≤ 0.03 µg/mL
  MIC90: 1 µg/mL (≈ 2.99 µM)
[7]
  MIC50: ≤ 0.03 µg/mL
  MIC90: 1 µg/mL (≈ 2.99 µM)
[8]
  MIC: ≤ 0.03 µg/mL
  MIC50: ≤ 0.03 µg/mL
  MIC90: 0.06 µg/mL (≈ 0.179 µM)
[9]
  MIC: ≤ 0.03 µg/mL
  MIC50: ≤ 0.03 µg/mL
  MIC90: 0.12 µg/mL (≈ 0.359 µM)
[10]
  MIC50: ≤ 0.03 µg/mL
  MIC90: 1 µg/mL (≈ 2.99 µM)
[11]
  MIC50: ≤ 0.03 µg/mL
  MIC90: 1 µg/mL (≈ 2.99 µM)
[12]
  MIC50: 0.5 µg/mL (≈ 1.5 µM)
  MIC90: 0.5 µg/mL (≈ 1.5 µM)
[13]
  MIC50: 0.06 µg/mL (≈ 0.179 µM)
  MIC90: 0.06 µg/mL (≈ 0.179 µM)
[14]
  MIC: ≤ 0.03 µg/mL
  MIC50: ≤ 0.03 µg/mL
  MIC90: ≤ 0.03 µg/mL
[15]
  MIC50: ≤ 0.03 µg/mL
  MIC90: 1 µg/mL (≈ 2.99 µM)

## C[C@@H](O)[C@H]1C(=O)N2C(C(=O)O)=C(S[C@@H]3CN[C@H](C(=O)N(C)C)C3)[C@H](C)[C@H]12 [MEROPENEM]
[16]
  MIC50: 0.03 µg/mL (≈ 0.0782 µM)
  MIC90: ≤ 0.12 µg/mL
[17]
  MIC50: 4 µg/mL (≈ 10.4 µM)
  MIC90: 8 µg/mL (≈ 20.9 µM)
[18]
  MIC50: 0.03 µg/mL (≈ 0.0782 µM)
  MIC90: ≤ 0.12 µg/mL
[19]
  MIC50: 0.03 µg/mL (≈ 0.0782 µM)
  MIC90: ≤ 0.12 µg/mL
[20]
  MIC50: 2 µg/mL (≈ 5.22 µM)
  MIC90: > 32 µg/mL
[21]
  MIC50: 0.06 µg/mL (≈ 0.156 µM)
  MIC90: ≤ 0.12 µg/mL
[22]
  MIC50: 2 µg/mL (≈ 5.22 µM)
  MIC90: > 32 µg/mL
[23]
  MIC50: 2 µg/mL (≈ 5.22 µM)
  MIC90: > 32 µg/mL
[24]
  MIC50: 0.03 µg/mL (≈ 0.0782 µM)
  MIC90: ≤ 0.12 µg/mL
[25]
  MIC50: 0.03 µg/mL (≈ 0.0782 µM)
  MIC90: ≤ 0.12 µg/mL
[26]
  MIC: 0.015 µg/mL (≈ 0.0391 µM)
  MIC50: 0.015 µg/mL (≈ 0.0391 µM)
  MIC90: ≤ 0.12 µg/mL
[27]
  MIC50: 0.03 µg/mL (≈ 0.0782 µM)
  MIC90: ≤ 0.12 µg/mL
[28]
  MIC50: 0.03 µg/mL (≈ 0.0782 µM)
  MIC90: ≤ 0.12 µg/mL
[29]
  MIC50: 0.03 µg/mL (≈ 0.0782 µM)
  MIC90: ≤ 0.12 µg/mL
[30]
  MIC50: ≤ 0.12 µg/mL
  MIC90: 0.12 µg/mL (≈ 0.313 µM)
[31]
  MIC50: 0.03 µg/mL (≈ 0.0782 µM)
  MIC90: ≤ 0.12 µg/mL
[32]
  MIC50: 0.03 µg/mL (≈ 0.0782 µM)
  MIC90: ≤ 0.12 µg/mL
[33]
  MIC50: 0.03 µg/mL (≈ 0.0782 µM)
  MIC90: ≤ 0.12 µg/mL
[34]
  MIC50: 0.03 µg/mL (≈ 0.0782 µM)
  MIC90: ≤ 0.12 µg/mL
